Reference: patent publication US20260217701A1, “SELECTIVE BET INHIBITORS AND USES THEREOF” (Tay Therapeutics Limited, priority 2022, published 2026)

Key:
[1] = tested on: collagen-induced arthritis; test: CIA model: histopathologic analysis of hind limbs; format: in vivo, Lewis rats; details: for Erosion/Ulcer, cartilaginous, Marked (number of animals) / Erosion/Ulcer, cartilaginous, Mild (number of animals) / Erosion/Ulcer, cartilaginous, Minimal (number of animals) / Erosion/Ulcer, cartilaginous, Moderate (number of animals) / Granulation tissue, Marked (number of animals) / Granulation tissue, Mild (number of animals) / Granulation tissue, Minimal (number of animals) / Granulation tissue, Moderate (number of animals) / Increased bone, periosteum, Marked (number of animals) / Increased bone, periosteum, Mild (number of animals) / Increased bone, periosteum, Minimal (number of animals) / Increased bone, periosteum, Moderate (number of animals) / Increased eroded surface, bone, Marked (number of animals) / Increased eroded surface, bone, Mild (number of animals) / Increased eroded surface, bone, Minimal (number of animals) / Increased eroded surface, bone, Moderate (number of animals) / Mixed cell inflammation, Marked (number of animals) / Mixed cell inflammation, Mild (number of animals) / Mixed cell inflammation, Minimal (number of animals) / Mixed cell inflammation, Moderate (number of animals) / No Visible Lesions (number of animals): hind limbs, CIA induced, 8 animals examined, comparator, dose not given; for Pathologic observations after microscopic evaluation: Group 3 (CIA + Dexamethasone)
Description: Mean histopathologic scores for tissue samples from animals in Groups 1-6 are depicted in FIG. 22A, and day 21 histology scores for all animals are illustrated in FIG. 22B.

[2] = tested on: collagen-induced arthritis; details: for animals with weight gain at end of study / diarrhea over the 21-day period / increase in body weight, day 21 vs day 0: rat, in vivo; for increase in body weight, day 21 vs day 0: po; for control of hind paw volume: reference treatments vs CIA+vehicle (group 2)
Protocol: (§1) The emulsion was cooled in an ice water bath during the formulation. The final concentration of collagen was 1 mg/mL. The emulsion is prepared fresh immediately prior to injection.
as §1
Experimental groups for the study are outlined in Table 5A. […] Animals in group one received no immunization.
IHC markers for staining were selected after evaluating clinical and histopathological scores for animals. After the skin was removed, the right hind limb was snap frozen in liquid nitrogen and RNA and protein analysis was performed.
Blood samples were collected from animals in groups 1-7 via cardiac puncture following euthanasia on Day 21. […] Serum was divided into two separate tubes and stored at −75±15° C. One tube was used to analyze IgG1, and the other tube was reserved for additional analyses.
H&E-stained slides of designated tissues from animals were transferred to an independent pathologist for microscopic evaluation (SPFBio). Samples were assigned the histologic grades based on the severity of change from tissue where CIA was not induced. Histology grades assigned were as follows: grade 1 (minimal change), grade 2 (mild change), grade 3 (moderate change), grade 4 (marked change), and grade 5 (severe change). A grade may be assigned for each indicator of disease severity: inflammation, mixed cell; granulation tissue; increased bone, periosteum; increased eroded surface, bone and erosion/ulcer, cartilaginous. […] Moderate inflammation was also associated with increased edema fluid, fibrin, and cellular debris. Marked mixed cell inflammation was characterized by dense, widespread accumulations of neutrophils and macrophages with lesser number of lymphocytes within one or more joint spaces, synovium and periarticular soft tissues. Marked inflammation was also associated with abundant edema fluid, fibrin, and cellular debris.
Marked granulation tissue (pannus) was associated with inflammation and was characterized by widespread fibrovascular connective tissue that expanded/replaced the periarticular soft tissues of one or more joints, extended into/expanded joint spaces, was contiguous with areas of erosion/ulcer in articular cartilage and/or increased eroded surface of bone, and variably extended along the diaphysis.
Marked increased periosteal bone (periosteal bone formation) was characterized by extensive areas of increased bone matrix and numerous prominent osteoblasts lining trabecular surfaces along the metaphysis and/or diaphysis of one or more bones.

Row | SMILES | Erosion/Ulcer, cartilaginous, Marked (number of animals) [1] | Erosion/Ulcer, cartilaginous, Mild (number of animals) [1] | Erosion/Ulcer, cartilaginous, Minimal (number of animals) [1] | Erosion/Ulcer, cartilaginous, Moderate (number of animals) [1] | Granulation tissue, Marked (number of animals) [1] | Granulation tissue, Mild (number of animals) [1] | Granulation tissue, Minimal (number of animals) [1] | Granulation tissue, Moderate (number of animals) [1] | Increased bone, periosteum, Marked (number of animals) [1] | Increased bone, periosteum, Mild (number of animals) [1] | Increased bone, periosteum, Minimal (number of animals) [1] | Increased bone, periosteum, Moderate (number of animals) [1] | Increased eroded surface, bone, Marked (number of animals) [1] | Increased eroded surface, bone, Mild (number of animals) [1] | Increased eroded surface, bone, Minimal (number of animals) [1] | Increased eroded surface, bone, Moderate (number of animals) [1] | Mixed cell inflammation, Marked (number of animals) [1] | Mixed cell inflammation, Mild (number of animals) [1] | Mixed cell inflammation, Minimal (number of animals) [1] | Mixed cell inflammation, Moderate (number of animals) [1] | other results
1 | CNC(=O)c1cc(C(=O)NC2CC2)cn(Cc2ccccc2)c1=O [GSK620] | 0 | 6 | 0 | 2 | 0 | 4 | 0 | 4 | 0 | 6 | 0 | 2 | 0 | 4 | 1 | 3 | 0 | 0 | 0 | 8 | Erosion/ulcer in articular cartilage, grade ([1]; Group 4 (CIA + GSK620)): mild and mild to moderate; Granulation tissue (pannus), grade ([1]; Group 4 (CIA + GSK620)): mild and mild to moderate; Increased eroded surface of bone (bone resorption), grade ([1]; Group 4 (CIA + GSK620)): mild and minimal to moderate; Increased periosteal bone (periosteal bone formation), grade ([1]; Group 4 (CIA + GSK620)): mild and mild to moderate; Mixed cell inflammation, grade ([1]; Group 4 (CIA + GSK620)): moderate; No Visible Lesions (number of animals) [1]: 0; animals exhibiting disease ([2]; group 4, day 18): all animals; animals with weight gain at end of study [2]: 4/8; diarrhea over the 21-day period [2]: did not have diarrhea; increase in body weight, day 21 vs day 0 [2]: 0.8%; control of hind paw volume [2]: failed to prevent an increase in paw volume
2 | C[C@@H]1C[C@H]2[C@@H]3CCC4=CC(=O)C=C[C@]4(C)[C@@]3(F)[C@@H](O)C[C@]2(C)[C@@]1(O)C(=O)CO [Dexamethasone, dexamethasone] | 0 | 0 | 0 | 0 | 0 | 0 | 0 | 0 | 0 | 0 | 0 | 0 | 0 | 0 | 0 | 0 | 0 | 0 | 0 | 0 | Pathologic observations after microscopic evaluation [1]: no histopathological observations noted; Pathologic observations after microscopic evaluation ([1]; listed as dexamethasone): No pathologic observations; No Visible Lesions (number of animals) [1]: 8; animals with weight gain at end of study [2]: 4/8; diarrhea over the 21-day period [2]: did not have diarrhea; increase in body weight, day 21 vs day 0 [2]: 1.3%; average overall clinical score at plateau ([2]; reference treatments (groups 3 and 4), around day 18): never exhibited any signs of disease; control of hind paw volume [2]: effective at controlling paw volume
